Measured values taken from the kinase profiling compilation of Christmann-Franck et al. (2016).
Values joined by “and” are separate entries in the source; they are usually repeats but may differ in a detail not shown here. Identical values can stand only once.

Experiments:
Experiment in all cases: radiometric filter-binding kinase assay, Kinase HotSpot
Conditions in all cases: compound 0.5 µM; ATP 10 µM
TBK1 (human) = TBK1 (human) (UniProt Q9UHD2)
BRSK2 (human) = BRSK2 (human) (UniProt Q8IWQ3)
LYN (human) = LYN (human) (UniProt P07948)
PBK (human) = PBK (human) (UniProt Q96KB5)
Chain of PBK (human) (Q96KB5 whole entry, looked up): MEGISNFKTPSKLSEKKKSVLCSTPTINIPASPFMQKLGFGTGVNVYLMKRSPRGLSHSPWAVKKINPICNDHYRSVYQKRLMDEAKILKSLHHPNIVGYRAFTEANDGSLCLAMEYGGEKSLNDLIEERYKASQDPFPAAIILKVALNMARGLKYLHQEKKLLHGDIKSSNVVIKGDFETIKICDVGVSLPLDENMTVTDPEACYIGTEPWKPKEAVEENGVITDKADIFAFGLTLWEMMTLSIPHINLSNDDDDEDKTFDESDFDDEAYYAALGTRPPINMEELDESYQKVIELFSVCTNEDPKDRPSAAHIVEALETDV

IKBKE (human) = IKBKE (human) (UniProt Q14164)
MARK4 (human) = MARK4 (human) (UniProt Q96L34)
CAMK2D (human) = CAMK2D (human) (UniProt Q13557)
ALK (human) = ALK (human) (UniProt Q9UM73)
DAPK1 (human) = DAPK1 (human) (UniProt P53355)
Chain of DAPK1 (human) (P53355 whole entry, looked up): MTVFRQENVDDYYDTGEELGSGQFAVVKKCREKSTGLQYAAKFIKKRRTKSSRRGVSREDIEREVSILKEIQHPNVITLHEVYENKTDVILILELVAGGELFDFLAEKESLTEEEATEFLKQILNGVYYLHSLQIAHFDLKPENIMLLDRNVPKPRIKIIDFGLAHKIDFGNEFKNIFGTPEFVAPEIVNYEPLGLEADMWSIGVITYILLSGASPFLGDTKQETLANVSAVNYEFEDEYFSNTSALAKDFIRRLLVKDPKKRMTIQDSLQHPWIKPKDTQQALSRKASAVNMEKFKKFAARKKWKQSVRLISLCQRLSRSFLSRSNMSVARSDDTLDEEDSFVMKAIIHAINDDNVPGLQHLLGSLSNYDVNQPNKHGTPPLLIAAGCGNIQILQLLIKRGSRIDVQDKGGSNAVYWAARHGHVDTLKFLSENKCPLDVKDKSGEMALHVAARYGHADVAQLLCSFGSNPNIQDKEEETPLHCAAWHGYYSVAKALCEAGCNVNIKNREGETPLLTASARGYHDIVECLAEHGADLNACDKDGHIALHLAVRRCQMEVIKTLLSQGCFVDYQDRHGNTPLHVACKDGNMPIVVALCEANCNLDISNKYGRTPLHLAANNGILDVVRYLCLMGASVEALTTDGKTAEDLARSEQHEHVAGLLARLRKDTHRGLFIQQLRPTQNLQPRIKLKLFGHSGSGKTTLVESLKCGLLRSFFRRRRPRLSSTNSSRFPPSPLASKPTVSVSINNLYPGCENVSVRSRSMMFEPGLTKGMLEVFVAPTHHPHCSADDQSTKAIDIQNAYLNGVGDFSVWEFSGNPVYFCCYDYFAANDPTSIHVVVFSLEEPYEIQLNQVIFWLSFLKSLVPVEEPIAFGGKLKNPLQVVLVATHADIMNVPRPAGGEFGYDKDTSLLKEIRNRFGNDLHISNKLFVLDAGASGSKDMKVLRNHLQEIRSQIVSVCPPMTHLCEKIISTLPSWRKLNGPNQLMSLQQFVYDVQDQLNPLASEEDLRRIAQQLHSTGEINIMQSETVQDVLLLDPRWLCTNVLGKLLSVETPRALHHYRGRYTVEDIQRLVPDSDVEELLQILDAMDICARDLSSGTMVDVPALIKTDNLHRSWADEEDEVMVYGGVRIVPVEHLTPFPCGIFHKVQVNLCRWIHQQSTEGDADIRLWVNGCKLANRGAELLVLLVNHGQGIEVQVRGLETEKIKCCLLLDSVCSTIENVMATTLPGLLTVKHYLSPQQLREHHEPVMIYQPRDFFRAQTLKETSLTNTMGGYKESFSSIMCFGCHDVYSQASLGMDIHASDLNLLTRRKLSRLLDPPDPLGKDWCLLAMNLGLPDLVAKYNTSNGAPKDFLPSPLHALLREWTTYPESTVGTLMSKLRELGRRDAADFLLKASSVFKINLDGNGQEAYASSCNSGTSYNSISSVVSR

SGK2 (human) = SGK2 (human) (UniProt Q9HBY8)
WEE1 (human) = WEE1 (human) (UniProt P30291)
MAP3K7 TAB1 (human) = MAP3K7 TAB1 (human) (UniProt O43318+Q15750)
PRKCB2 (human) = PRKCB2 (human) (UniProt P05771)
Chain of PRKCB2 (human) (P05771 whole entry, looked up): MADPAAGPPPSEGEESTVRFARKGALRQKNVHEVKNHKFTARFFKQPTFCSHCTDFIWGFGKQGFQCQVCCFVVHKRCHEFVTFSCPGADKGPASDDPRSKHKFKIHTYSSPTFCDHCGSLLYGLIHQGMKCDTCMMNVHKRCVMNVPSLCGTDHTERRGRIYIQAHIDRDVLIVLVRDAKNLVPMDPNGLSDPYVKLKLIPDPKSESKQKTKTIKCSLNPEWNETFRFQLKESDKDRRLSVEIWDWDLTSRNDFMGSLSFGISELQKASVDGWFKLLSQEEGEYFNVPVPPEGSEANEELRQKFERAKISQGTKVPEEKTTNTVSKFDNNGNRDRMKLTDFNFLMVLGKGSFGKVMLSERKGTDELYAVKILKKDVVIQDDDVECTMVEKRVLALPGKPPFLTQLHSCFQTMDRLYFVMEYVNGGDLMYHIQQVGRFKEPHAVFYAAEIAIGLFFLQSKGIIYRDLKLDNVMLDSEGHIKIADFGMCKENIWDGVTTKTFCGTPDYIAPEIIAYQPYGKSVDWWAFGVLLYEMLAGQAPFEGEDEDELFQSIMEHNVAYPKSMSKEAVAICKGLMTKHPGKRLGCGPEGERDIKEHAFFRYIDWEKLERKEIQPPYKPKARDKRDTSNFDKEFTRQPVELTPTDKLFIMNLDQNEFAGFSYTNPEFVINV

NEK1 (human) = NEK1 (human) (UniProt Q96PY6)
IRAK1 (human) = IRAK1 (human) (UniProt P51617)
SRC (human) = SRC (human) (UniProt P12931)
TXK (human) = TXK (human) (UniProt P42681)
IRAK4 (human) = IRAK4 (human) (UniProt Q9NWZ3)
WNK2 (human) = WNK2 (human) (UniProt Q9Y3S1)
MAPK1 (human) = MAPK1 (human) (UniProt P28482)
Chain of MAPK1 (human) (P28482 whole entry, looked up): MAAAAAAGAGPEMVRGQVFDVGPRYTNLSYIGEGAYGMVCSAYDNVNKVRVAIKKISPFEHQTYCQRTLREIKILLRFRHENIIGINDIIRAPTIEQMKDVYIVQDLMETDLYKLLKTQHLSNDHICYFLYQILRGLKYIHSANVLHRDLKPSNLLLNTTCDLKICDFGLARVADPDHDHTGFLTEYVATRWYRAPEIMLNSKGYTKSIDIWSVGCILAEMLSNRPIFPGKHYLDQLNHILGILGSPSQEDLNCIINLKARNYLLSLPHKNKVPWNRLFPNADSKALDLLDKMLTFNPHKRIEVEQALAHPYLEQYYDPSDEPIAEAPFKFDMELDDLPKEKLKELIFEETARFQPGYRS

CHEK1 (human) = CHEK1 (human) (UniProt O14757)
PDGFRA (human) = PDGFRA (human) (UniProt P16234)
NEK4 (human) = NEK4 (human) (UniProt P51957)
NEK7 (human) = NEK7 (human) (UniProt Q8TDX7)
FYN (human) = FYN (human) (UniProt P06241)
Chain of FYN (human) (P06241 whole entry, looked up): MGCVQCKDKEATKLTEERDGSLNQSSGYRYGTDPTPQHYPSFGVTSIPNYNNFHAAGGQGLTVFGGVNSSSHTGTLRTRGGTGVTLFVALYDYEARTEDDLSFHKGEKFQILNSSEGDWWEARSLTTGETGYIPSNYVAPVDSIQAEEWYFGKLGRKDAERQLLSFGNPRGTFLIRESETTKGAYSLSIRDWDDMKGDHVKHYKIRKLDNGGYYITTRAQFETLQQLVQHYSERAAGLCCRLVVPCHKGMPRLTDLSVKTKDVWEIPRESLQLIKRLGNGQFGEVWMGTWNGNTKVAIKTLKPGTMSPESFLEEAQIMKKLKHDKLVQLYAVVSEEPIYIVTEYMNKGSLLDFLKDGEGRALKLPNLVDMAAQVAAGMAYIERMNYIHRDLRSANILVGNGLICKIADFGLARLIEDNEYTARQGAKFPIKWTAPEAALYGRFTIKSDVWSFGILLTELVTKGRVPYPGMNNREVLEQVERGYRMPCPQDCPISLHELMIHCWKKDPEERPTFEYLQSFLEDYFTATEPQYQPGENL

PRKD3 (human) = PRKD3 (human) (UniProt O94806)
CDK4 CCND1 (human) = CDK4 CCND1 (human) (UniProt P24385+P11802)
NEK2 (human) = NEK2 (human) (UniProt P51955)
TSSK1B (human) = TSSK1B (human) (UniProt Q9BXA7)
PIM3 (human) = PIM3 (human) (UniProt Q86V86)
ADRBK1 (human) = ADRBK1 (human) (UniProt P25098)
GSK3B (human) = GSK3B (human) (UniProt P49841)
Chain of GSK3B (human) (P49841 whole entry, looked up): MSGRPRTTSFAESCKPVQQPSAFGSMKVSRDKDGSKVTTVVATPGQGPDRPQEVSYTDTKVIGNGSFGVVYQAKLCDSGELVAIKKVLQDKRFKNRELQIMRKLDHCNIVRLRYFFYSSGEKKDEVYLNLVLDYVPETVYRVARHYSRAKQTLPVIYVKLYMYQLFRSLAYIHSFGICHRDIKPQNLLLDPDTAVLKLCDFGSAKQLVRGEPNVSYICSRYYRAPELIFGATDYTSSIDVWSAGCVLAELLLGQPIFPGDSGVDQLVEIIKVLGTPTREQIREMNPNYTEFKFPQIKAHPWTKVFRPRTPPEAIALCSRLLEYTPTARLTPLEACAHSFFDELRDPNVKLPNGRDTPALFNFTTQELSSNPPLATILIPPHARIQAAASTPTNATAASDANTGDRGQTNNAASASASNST

CLK4 (human) = CLK4 (human) (UniProt Q9HAZ1)
Chain of CLK4 (human) (Q9HAZ1 whole entry, looked up): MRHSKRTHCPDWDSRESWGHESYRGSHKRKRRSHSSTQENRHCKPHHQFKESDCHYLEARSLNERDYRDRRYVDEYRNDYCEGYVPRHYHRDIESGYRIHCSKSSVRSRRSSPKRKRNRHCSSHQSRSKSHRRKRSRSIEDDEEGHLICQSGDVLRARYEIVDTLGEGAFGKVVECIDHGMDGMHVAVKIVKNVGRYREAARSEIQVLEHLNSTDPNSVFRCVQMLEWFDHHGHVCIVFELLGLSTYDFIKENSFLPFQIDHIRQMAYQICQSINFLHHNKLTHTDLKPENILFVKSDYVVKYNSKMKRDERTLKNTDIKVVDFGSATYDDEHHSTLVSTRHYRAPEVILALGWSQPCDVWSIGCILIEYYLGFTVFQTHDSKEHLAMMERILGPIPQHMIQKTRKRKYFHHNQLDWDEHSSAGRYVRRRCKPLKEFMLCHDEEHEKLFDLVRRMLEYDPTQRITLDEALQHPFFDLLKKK

ZAP70 (human) = ZAP70 (human) (UniProt P43403)
PAK1 (human) = PAK1 (human) (UniProt Q13153)
MARK3 (human) = MARK3 (human) (UniProt P27448)
Chain of MARK3 (human) (P27448 whole entry, looked up): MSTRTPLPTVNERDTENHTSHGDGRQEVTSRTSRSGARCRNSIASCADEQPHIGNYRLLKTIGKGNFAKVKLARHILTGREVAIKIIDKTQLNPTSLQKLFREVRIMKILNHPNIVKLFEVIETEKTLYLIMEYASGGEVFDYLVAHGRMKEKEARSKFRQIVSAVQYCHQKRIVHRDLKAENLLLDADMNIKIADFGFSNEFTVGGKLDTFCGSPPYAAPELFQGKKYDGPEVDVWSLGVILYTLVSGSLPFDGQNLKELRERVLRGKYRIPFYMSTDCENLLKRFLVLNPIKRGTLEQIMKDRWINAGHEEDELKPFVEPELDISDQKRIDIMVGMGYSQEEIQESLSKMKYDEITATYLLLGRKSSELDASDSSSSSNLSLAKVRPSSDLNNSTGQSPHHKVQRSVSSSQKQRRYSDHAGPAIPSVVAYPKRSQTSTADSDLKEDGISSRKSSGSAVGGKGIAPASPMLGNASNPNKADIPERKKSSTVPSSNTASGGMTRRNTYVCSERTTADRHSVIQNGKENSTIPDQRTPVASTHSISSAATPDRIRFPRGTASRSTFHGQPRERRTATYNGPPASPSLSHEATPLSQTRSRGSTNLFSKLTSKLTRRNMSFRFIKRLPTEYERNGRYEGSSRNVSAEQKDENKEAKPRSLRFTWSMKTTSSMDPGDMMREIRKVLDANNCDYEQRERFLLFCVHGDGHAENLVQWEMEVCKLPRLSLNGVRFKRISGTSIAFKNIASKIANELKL

RPS6KA3 KD1 KD2 (human) = RPS6KA3 KD1 KD2 (human) (UniProt P51812)
TGFBR2 (human) = TGFBR2 (human) (UniProt P37173)
NEK3 (human) = NEK3 (human) (UniProt P51956)
MAP4K4 (human) = MAP4K4 (human) (UniProt O95819)
VRK1 (human) = VRK1 (human) (UniProt Q99986)
MAPKAPK3 (human) = MAPKAPK3 (human) (UniProt Q16644)

In the case of `CS(=O)c1ccc(-c2nc(-c3ccc(F)cc3)c(-c3ccncc3)[nH]2)cc1` (stereo not given), the residual activity (TBK1 (human)) is reported as 99.7%, the residual activity (BRSK2 (human)) is reported as 101% and the residual activity (LYN (human)) is reported as 91.8% and 99.1%. It also gave a residual activity (PBK (human)) of 102%, a residual activity (IKBKE (human)) of 98% and a residual activity (MARK4 (human)) of 98.5%. For the same compound, the residual activity (CAMK2D (human)) was 103%, the residual activity (ALK (human)) was 105% and the residual activity (DAPK1 (human)) was 90.3%. The residual activity (SGK2 (human)) was 106%, the residual activity (WEE1 (human)) was 92.1% and the residual activity (MAP3K7 TAB1 (human)) was 94%. The residual activity (PRKCB2 (human)) was 97.9%, the residual activity (NEK1 (human)) was 94.7% and the residual activity (IRAK1 (human)) was 129%. The residual activity (SRC (human)) was 92.6%, the residual activity (TXK (human)) was 63.9% and the residual activity (IRAK4 (human)) was 130%. For the same compound, the residual activity (WNK2 (human)) was 103%, the residual activity (MAPK1 (human)) was 94.7% and the residual activity (CHEK1 (human)) was 97.3%. The residual activity (PDGFRA (human)) was 98.8%, the residual activity (NEK4 (human)) was 98.2% and the residual activity (NEK7 (human)) was 98.9%. It also gave a residual activity (FYN (human)) of 89.8%, a residual activity (PRKD3 (human)) of 84.1% and a residual activity (CDK4 CCND1 (human)) of 105%. It also gave a residual activity (NEK2 (human)) of 105%, a residual activity (TSSK1B (human)) of 108% and a residual activity (PIM3 (human)) of 98.1%. The residual activity (ADRBK1 (human)) was 101%, the residual activity (GSK3B (human)) was 80.2% and the residual activity (CLK4 (human)) was 98.7%. The residual activity (ZAP70 (human)) was 94.4%, the residual activity (PAK1 (human)) was 99.2% and the residual activity (MARK3 (human)) was 101%. The residual activity (RPS6KA3 KD1 KD2 (human)) was 95.7%, the residual activity (TGFBR2 (human)) was 144% and the residual activity (NEK3 (human)) was 92.2%.

For `O=c1cc(N2CCNCC2)oc2c(-c3ccccc3)cccc12`, the residual activity (TBK1 (human)) was 98.7%, the residual activity (BRSK2 (human)) was 103% and the residual activity (LYN (human)) was 101% and 95.8%. It also gave a residual activity (PBK (human)) of 124%, a residual activity (IKBKE (human)) of 88.1% and a residual activity (MARK4 (human)) of 92.8%. The residual activity (CAMK2D (human)) was 93.6%, the residual activity (ALK (human)) was 83.8% and the residual activity (DAPK1 (human)) was 91.1%. The residual activity (SGK2 (human)) was 102%, the residual activity (WEE1 (human)) was 83.4% and the residual activity (MAP3K7 TAB1 (human)) was 94.2%. The residual activity (PRKCB2 (human)) was 101%, the residual activity (NEK1 (human)) was 82.8% and the residual activity (IRAK1 (human)) was 162%. The residual activity (SRC (human)) was 91.2%, the residual activity (TXK (human)) was 95.4% and the residual activity (IRAK4 (human)) was 96.8%. It also gave a residual activity (WNK2 (human)) of 111%, a residual activity (MAPK1 (human)) of 65.4% and a residual activity (CHEK1 (human)) of 104%. It also gave a residual activity (MAP4K4 (human)) of 92.7%, a residual activity (PDGFRA (human)) of 97.4% and a residual activity (NEK4 (human)) of 86.4%. It also gave a residual activity (NEK7 (human)) of 95.7%, a residual activity (FYN (human)) of 104% and a residual activity (PRKD3 (human)) of 88.6%. The residual activity (CDK4 CCND1 (human)) was 115%, the residual activity (NEK2 (human)) was 86% and the residual activity (TSSK1B (human)) was 89.5%. The residual activity (PIM3 (human)) was 93.5%, the residual activity (ADRBK1 (human)) was 109% and the residual activity (GSK3B (human)) was 97%. The residual activity (CLK4 (human)) was 88.9%, the residual activity (ZAP70 (human)) was 102% and the residual activity (PAK1 (human)) was 99%. The residual activity (MARK3 (human)) was 88.8%, the residual activity (RPS6KA3 KD1 KD2 (human)) was 101% and the residual activity (TGFBR2 (human)) was 88.4%. For the same compound, the residual activity (NEK3 (human)) was 106% and the residual activity (VRK1 (human)) was 92.1%.

For `C#Cc1cccc(Nc2ncnc3cc(OCCOC)c(OCCOC)cc23)c1`, the residual activity (BRSK2 (human)) was 100%, the residual activity (MAPKAPK3 (human)) was 98.1% and the residual activity (LYN (human)) was 72.5% and 75.4%. It also gave a residual activity (PBK (human)) of 104%, a residual activity (MARK4 (human)) of 102% and a residual activity (CAMK2D (human)) of 95.1%. It also gave a residual activity (DAPK1 (human)) of 103%, a residual activity (SGK2 (human)) of 107% and a residual activity (WEE1 (human)) of 95.2%. For the same compound, the residual activity (MAP3K7 TAB1 (human)) was 88.8%, the residual activity (PRKCB2 (human)) was 98.6% and the residual activity (NEK1 (human)) was 73.8%. The residual activity (IRAK1 (human)) was 95.9%, the residual activity (SRC (human)) was 77.4% and the residual activity (IRAK4 (human)) was 93.8%. It also gave a residual activity (MAPK1 (human)) of 116%, a residual activity (CHEK1 (human)) of 95.1% and a residual activity (PDGFRA (human)) of 84.4%. The residual activity (NEK7 (human)) was 97.4%, the residual activity (FYN (human)) was 94.7% and the residual activity (PRKD3 (human)) was 86.5%. It also gave a residual activity (CDK4 CCND1 (human)) of 96%, a residual activity (NEK2 (human)) of 100% and a residual activity (TSSK1B (human)) of 78.9%. It also gave a residual activity (PIM3 (human)) of 81.4%, a residual activity (ADRBK1 (human)) of 92.9% and a residual activity (GSK3B (human)) of 102%. For the same compound, the residual activity (CLK4 (human)) was 101%, the residual activity (ZAP70 (human)) was 94.4% and the residual activity (PAK1 (human)) was 109%. The residual activity (MARK3 (human)) was 96.4%, the residual activity (RPS6KA3 KD1 KD2 (human)) was 100% and the residual activity (TGFBR2 (human)) was 91.8%. It also gave a residual activity (NEK3 (human)) of 95.6% and a residual activity (VRK1 (human)) of 103%.
